Like-named read-outs stand apart in the source and are kept apart here. Marks after values point to notes of the source that are not given here. A value given as a limit tells only on which side of the number the result lay.

The subject of one series is GHOST CCR5 cells. The following applies: GHOST CCR5 cells; XTT; triplicate.
For the next series, the system named is HIV-1BaL. Kind of series: Anti-HIV-1BaL activity (reverse transcriptase activity) in GHOST CCR5 cells. The following applies: for EC50: read-out: Inhibition of HIV-1BaL EC50, RT activity, triplicate.
The subject of series [1] is HIV-1BaL Env-pseudotyped Luc-expressing virus. Put plainly: HIV-1 infection assay in PHA-stimulated PBMC cells. Type of series: cell-based. The following applies: PHA-stimulated PBMCs; 10 nM. The procedure:
Peripheral blood mononuclear cells (PBMCs) include large numbers of CCR5-expressing leukocytes and are susceptible to infection by R5-tropic HIV-1 strains.
In a 24-well plate, PHA-stimulated PBMC cells from healthy donors were infected by incubation with the HIV-1BaL.01 env-pseudotyped Luc virus. A concentration of HIV-1 p24 50 pg/106 cells was used, and uninfected cells served as a negative control. […] After approximately 18-20 h, the supernatant was removed and stored at −80° C., cells were rinsed twice with PBS and lysed. The lysate was subsequently tested for the relative Tat protein expression by using a luciferase assay system (Promega). Luciferase activity was measured using a PHERASTAR® FS plate reader (BMG Labtech).

Series [2] deals with T1, mouse MOR (Mus musculus (Mouse), UniProt P42866). The following applies: [35S]GTPγS binding; data reported before, shown for comparison; cited from earlier work. A general note: GTPγS resists hydrolysis and so accumulates on activated G proteins.
T1 sequence (P42866 whole entry, looked up): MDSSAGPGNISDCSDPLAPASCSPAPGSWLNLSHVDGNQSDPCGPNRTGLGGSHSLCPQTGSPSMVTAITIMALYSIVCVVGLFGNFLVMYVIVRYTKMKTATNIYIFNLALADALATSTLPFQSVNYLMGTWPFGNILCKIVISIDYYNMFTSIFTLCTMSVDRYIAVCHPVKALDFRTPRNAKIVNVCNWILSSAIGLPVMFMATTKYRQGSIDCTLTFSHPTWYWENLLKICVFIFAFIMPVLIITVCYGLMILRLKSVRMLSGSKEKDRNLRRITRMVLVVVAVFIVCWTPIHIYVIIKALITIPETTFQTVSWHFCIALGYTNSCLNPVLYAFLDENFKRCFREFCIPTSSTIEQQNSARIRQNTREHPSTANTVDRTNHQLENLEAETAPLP
For series [3], the target named is T2, Rhesus macaque chemokine CCR5 receptors (Macaca mulatta (Rhesus macaque), UniProt P61813). The settings on record: data reported before; similar assay with minor differences; read-out: CCR5 Radioligand Binding Affinity Ki; cited from earlier work.
Series [4] deals with T3, CCR5 (Homo sapiens (Human), UniProt P51681). The following applies: data reported before, shown for comparison; read-out: Inhibition of CCL5-stimulated Intracellular Ca2+ Mobilization IC50; cited from earlier work. A general note: Calcium flux is commonly read through the fluorescence of an indicator in the cells.
T3 sequence (P51681 whole entry): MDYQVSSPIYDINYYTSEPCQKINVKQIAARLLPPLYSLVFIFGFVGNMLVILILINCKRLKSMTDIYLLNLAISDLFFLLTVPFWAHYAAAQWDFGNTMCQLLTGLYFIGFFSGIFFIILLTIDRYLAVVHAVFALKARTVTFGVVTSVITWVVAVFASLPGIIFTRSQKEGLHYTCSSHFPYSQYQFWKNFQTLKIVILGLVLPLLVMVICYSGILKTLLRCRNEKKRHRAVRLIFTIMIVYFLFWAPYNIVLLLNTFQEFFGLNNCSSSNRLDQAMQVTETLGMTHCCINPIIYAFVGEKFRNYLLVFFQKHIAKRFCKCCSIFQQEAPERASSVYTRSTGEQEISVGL
For series [5], the target named is T4, mouse mu opioid receptor (Mus musculus (Mouse), UniProt P42866). The following applies: read-out: Inhibition of DAMGO Induced Ca2+ Mobilization IC50; data reported before, shown for comparison; cited from earlier work.
T4 sequence (P42866 whole entry, looked up): as the sequence (P42866 whole entry, looked up) above
Series [6] deals with T1, mouse MOR. Kind of series: In vitro MOR radioligand binding assay. The following applies: [3H]naloxone radioligand; mMOR-CHO; mean ± SEM; read-out: MOR Radioligand Binding Affinity Ki.
Description: In vitro MOR radioligand binding studies. All bivalent ligands were first tested for their binding affinity to the MOR. The competitive radioligand binding assay was conducted using monoclonal mouse MOR expressed in CHO cell lines (mMOR-CHO).
In vitro MOR radioligand binding assay The competition binding assay was conducted using monoclonal mouse MOR expressed in Chinese hamster ovary (CHO) cell lines. In this assay, 30 μg of membrane protein was incubated with the radioligand [^3H] naloxone in the presence of different concentrations of tested compounds in TME buffer (50 mM Tris, 3 mM MgCl2, and 0.2 mM EGTA, pH 7.4) for 1.5 h at 30° C. The bound radioligand was separated by filtration using a Brandel harvester. […] The IC50 values were determined and converted to Ki values using the Cheng-Prusoff equation: Ki=IC50/[1+([L*]/KD)], where [L*] is the concentration of the radioligand and KD is the KD of the radioligand was determined.73
Series [7] has as its target T1, mouse MOR. Put plainly: [35S]GTPγS functional assay in mMOR-CHO. The format is biochemical. The following applies: [35S]GTPγS binding, mean ± SEM. How it is done:
After incubation, the bound radioactive ligand was separated from the free radioligand by filtration through a GF/B glass fiber filter paper and rinsed three times with ice-cold wash buffer (50 mM Tris-HCl, pH 7.2) using the Brandel harvester.

The target of series [8] is T4, mouse mu opioid receptor. Put plainly: Calcium mobilization assay in mMOR-CHO cells. The format is cell-based. The procedure: Calcium mobilization assay results in mMOR-CHO cells. The pharmacological profiles of the three newly prepared MOR bivalent ligands were further characterized for their effects on MOR-dependent intracellular Ca^2+ signaling in an mMOR-CHO cell line that was transfected with chimeric Gqi5 protein as previously described.
A CHO cell line stably expressing the mouse mu opioid receptor (mMOR-CHO) was used for this assay. The cells were transfected with Gαqi5 for 4 h and then plated (10,000 cells/well) to black 96-well plates with clear bottoms (Greiner Bio-One). After 24 h of incubation, the culture medium was removed, and the cells were washed with assay buffer (50 mL of HBSS, 1 mL of HEPES, 250 μL of probenecid, 50 μL of 1 mM CaCl2, and 50 μL of 1 mM MgCl2). The tested compounds were dissolved in DMSO as a stock solution for the assay (1 M). For agonist assays, cells were then incubated with 50 μL/well loading buffer (6 mL of assay buffer, 24 μL of Fluo4-AM solution (Invitrogen), and 12 μL of probenecid solution) for 60 min. Following incubation, different concentrations of the tested compounds were added by a FlexStation3 microplate reader (Molecular Devices) and read at ex494/em516. Each concentration was run in triplicate. For antagonism studies, the cells were incubated with the same loading buffer as the agonist assay for 60 min. Then, different concentrations of the tested compounds (20 μL/well) were manually added to each well followed by another 15 min of incubation. […] Each concentration was run in triplicate. The corresponding IC50 value of each compound was calculated by non-linear regression using GraphPad Prism 8.0.1 (GraphPad Software, San Diego, CA).

Series [9] addresses T2, Rhesus macaque chemokine CCR5 receptors. Kind of series: In vitro CCR5 radioligand binding assay. The settings on record: [125I]MIP-1α radioligand; Chem-1 cells; Cheng-Prusoff; mean ± SEM; read-out: CCR5 Radioligand Binding Affinity Ki. How it is done:
In vitro CCR5 radioligand binding studies. To verify the binding affinity of the bivalent ligands to the CCR5, the competitive radioligand binding assay was conducted in recombinant rhesus macaque CCR5-expressing Chem-1 cells, and macrophage inflammatory protein 1 beta (MIP-1β) was used as a control.
The CCR5 competitive radioligand binding assay was conducted following previously reported studies.74, 75 Rhesus macaque chemokine CCR5 receptors expressed in Chem-1 cells are assayed in modified HEPES buffer (50 mM HEPES, 1 mM CaCl2, 5 mM MgCl2, 0.2% BSA, pH 7.4). 3 μg of membrane protein was incubated with 0.10 nM [^125I]MIP-1α in the presence of six concentrations of tested compounds (10 μM, 1 μM, 0.1 μM, 10 nM, 1 nM, and 0.1 nM) for 90 min at 25° C. Non-specific binding is estimated in the presence of 0.1 μM MIP-1β.

Series [10] concerns the target T3, CCR5. Put plainly: Calcium mobilization assay in HOS-CCR5 cells. Type of series: cell-based. How it is done:
We then conducted the calcium mobilization assay to further test both the agonist and antagonist properties of the newly synthesized compounds in the HOS-CCR5 (stably transfected for the expression of CCR5) cells using our reported protocol, as calcium mobilization is associated with the activation of CCR5. Prior to the assay, the HOS-CCR5 cells were transiently transfected with a Gqi5 to boost calcium signaling levels.
In the antagonism assay, these compounds were assessed for their ability to inhibit CCL5-stimulated Ca^2+ mobilization.
HOS-CCR5 cells were transfected with Gqi5 pcDNA16 using Lipofectamine 2000 (Invitrogen) according to the manufacturer's recommended procedure and maintained in RPMI 1640 supplemented with 10% fetal bovine serum, 100 μg/mL penicillin, 100 μg/mL streptomycin, and 1 mg/mL G418 at 37° C. and 5% C02. 48 h after transfection, a total of 2,500,000 cells were spun down and brought back up in 8 mL of 50:1 HBSS: HEPES assay buffer. Cells were then plated at 25,000 cells per well into a clear bottom, black 96-well plate (Greiner Bio-one) and 50 μL of Fluo4 loading buffer [40 μL of 2 μM Fluo4-AM (Invitrogen), 100 μL of 2.5 mM probenecid, in 5 mL of assay buffer] was added to bring the volume up to 130 μL. After incubating for 45 min, 50 μL of varying concentrations of tested compounds were added and the plate was incubated for an additional 15 min. Plates were then read on a FlexStation3 microplate reader (Molecular Devices) at 494/516 ex/em for a total of 120 s. After 16 s of reading, 20 μL of 200 nM CCL5 (Biosource) in assay buffer, or assay buffer alone, was added to the wells to bring the total volume up to 200 μL. The changes in calcium mobilization were monitored and peak height values were obtained using SoftMaxPro software (Molecular Devices). Non-linear regression curves and IC50 values were generated using GraphPad Prism 8.0.1 (GraphPad Software, San Diego, CA). All experiments were repeated at least three times.

`Cc1nnc(C(C)C)n1C1C[C@H]2CC[C@@H](C1)N2CC[C@H](NC(=O)C1CCC(F)(F)CC1)c1ccccc1` (stereo in doubt) [Maraviroc]: in the series on GHOST CCR5 cells, the “Cytotoxicity TC50” value is greater than 500 nM. Also, in the series on HIV-1BaL, the “TI (TC50/EC50)” value is reported as greater than 28 and the EC50 came out at 18 ± 2 nM.

On to `C[C@@H](NC(=O)[C@@H](N)Cc1ccc(O)cc1)C(=O)NCC(=O)N(C)[C@@H](Cc1ccccc1)C(=O)NCCO` [DAMGO, [D-Ala2-MePhe4-Gly(ol)5]enkephalin, reference compound], for which the “effect of opioid exposure on HIV expression” value in series [1] is on record as “remarkable increases in HIV expression”.

`Cc1nnc(C(C)C)n1C1CC2CCC(C1)N2CC[C@H](NC(=O)C1CCC(F)(F)CC1)c1ccc(NC(=O)COCC(=O)NCCCCCCCNC(=O)COCC(=O)N[C@@H]2CC[C@@]3(O)[C@H]4Cc5ccc(O)c6c5[C@@]3(CCN4CC3CC3)[C@H]2O6)cc1` (stereo partly drawn) [VZMC001]: in the series with GHOST CCR5 cells, the “Cytotoxicity TC50” value was greater than 100000 nM. Also, at mouse MOR [2], the “% Emax of DAMGO” value is on record as 11.7 ± 1.2^b %. The Ki in [3] is 239 ± 56 nM. The IC50 is 126 nM on CCR5 [4] and 40 nM on mouse mu opioid receptor [5]. In the series with HIV-1BaL, the EC50 was greater than 100000 nM.

Consider `CNC(=O)COCC(=O)NCCCNC(=O)COCC(=O)N[C@@H]1CC[C@@]2(O)[C@H]3Cc4ccc(O)c5c4[C@@]2(CCN3CC2CC2)[C@H]1O5` [VZMC002], for which the “Cytotoxicity TC50” value in the series with GHOST CCR5 cells was greater than 100000 nM.

Regarding `CC(C)c1nnc(CCNC(=O)COCC(=O)NCCCCCCCCCNC(=O)COCC(=O)NC2CC[C@@]3(O)[C@H]4Cc5ccc(O)c6c5[C@@]3(CCN4CC3CC3)[C@H]2O6)n1C1CC2CCC(C1)N2CC[C@H](NC(=O)C1CCC(F)(F)CC1)c1ccccc1` (stereo partly drawn) [VZMC017], the values for the inhibition constant Ki (on mouse MOR [6]; in [9]) were 11.2 nM and 5.7 ± 0.23 nM, respectively. Also, the “% Emax of DAMGO” value at mouse MOR [7] is 4.27 ± 0.66^a %. For the same molecule, the IC50 came to 74.4 nM at mouse mu opioid receptor [8] and 965 ± 30.5 nM on CCR5 [10].

Take “CCL5: C—C motif chemokine ligand 5, control CCR5 agonist”: the EC50 with CCR5 [10] (agonist mode, HOS-CCR5 transfected with Gqi5, read-out: CCR5 Ca2+ mobilization agonism EC50) turned out to be 155 ± 6.58 nM.

B1: MIP-1β: macrophage inflammatory protein 1 beta, used as a control (protein, UniProt P13236 24-92, looked up)
C-C motif chemokine 4: APMGSDPPTACCFSYTARKLPRNFVVDYYETSSLCSQPAVVFQTKRSKQVCADPSESWVQEYVYDLELN
Take B1: the Ki in [9] is 0.056 ± 0.006 nM.

As usually defined, the EC50 is the concentration giving half of the maximal effect. As usually defined, the Ki is the equilibrium dissociation constant of an inhibitor or competing ligand from its target. Usually IC50 stands for the concentration that inhibits the measured activity by half.

(Values after patent publication US20240208984A1, “BIVALENT LIGANDS TO UNDERSTAND DIMERIZATION OF THE MU OPIOID RECEPTOR AND THE CHEMOKINE RECEPTOR CCR5 IN NEUROLOGICAL DISORDERS” (priority 2021, published 2024).)
